Data set [1] in a line: Cytotoxicity in the DENV assay, uninfected parallel cultures. As to conditions: human, DENV CC50, uninfected Huh-7.5 parallel cultures.
Data set [2] in a line: Cell viability (CC50) in the RSV replicon assay. As to conditions: human, HeLa-derived cells containing the stable RSV replicon, CellTiter-Glo. (A replicon is a self-replicating genome or part of one, used to study replication in cells.)
The subject of data set [3] is human β-coronavirus strain OC43. In words: Coronavirus antiviral assay (OC43). It is filed as cell-based. As to conditions: Betacoronavirus 1, OC43, 120 h; HeLa or MRC-5 cells, five days, CellTiter-Glo; read-out: OC43CoV EC50. Here is the method:
(§1) The human β-coronavirus strain OC43 was purchased from ATCC (Manassas, Va.; item numbers VR-1558 and VR-740, respectively). 24 hours prior to dosing, HeLa human cervix epithelial cells (ATCC, CCL-2) or MRC-5 human lung fibroblast (ATCC, CCL-171) were plated in 96 well plates at a density of 1.5×10^5/ml in DMEM medium supplemented with 10% fetal bovine serum, 1% HEPES buffer, 1% Penicillin/Streptomycin and 1% non-essential amino acids (all Mediatech, Manassas, Va.). At the day of infection, serially diluted compounds were added to cells and incubated for 4 hours. After the end of the 4 hour pre-incubation period, cells were infected with either coronavirus strain OC43 or 229E. The virus inoculum was selected to cause 80-90% cytopathic effect. Infected cells were incubated for five days at 37° C., 5% CO2. To develop the assay, 100 μl media was replaced with 100 μl CellTiter-Glo® reagent (Promega, Madison, Wis.), and incubated for 10 min at room temperature. Luminescence was measured on a Victor X3 multi-label plate reader. Potential compound cytotoxicity was determined using uninfected parallel cultures.
On the technique in general: In ATP-based viability assays light output follows the ATP content of the culture.

The subject of data set [4] is Dengue virus type 2 NG-C or Dengue virus type 4 H241. Kind of data set: Dengue antiviral assay (DENV). It is filed as cell-based. The note with it: Huh-7.5 cells, five to six days, CellTiter-Glo. As for the experimental part:
The Dengue virus type 2 strain New Guniea C (NG-C) and the Dengue virus type 4 strain H241 were purchased from ATCC (Manassas, Va.; item numbers VR-1584 and VR-1490, respectively). 24 hours prior to dosing, Huh-7.5 cells were plated in 96 well plates at a density of 1.5×10^5/ml in DMEM medium supplemented with 10% fetal bovine serum, 1% HEPES buffer, 1% Penicillin/Streptomycin and 1% non-essential amino acids (all Mediatech, Manassas, Va.). At the day of infection, serially diluted compounds were added to cells and incubated for 4 hours. After the end of the 4 hour pre-incubation period, cells were infected with either Dengue virus type 2 NG-C or Dengue virus type 4 H241. The virus inoculum was selected to cause 80-90% cytopathic effect in five to six days. Infected cells were incubated for five (NG-C) to six (H241) days at 37° C., 5% CO2. To develop the assay, 100 μl media was replaced with 100 μl CellTiter-Glo® reagent (Promega, Madison, Wis.), and incubated for 10 min at room temperature. Luminescence was measured on a Victor X3 multi-label plate reader. Potential compound cytotoxicity was determined using uninfected parallel cultures.

For another data set, the system named is RSV replicon. In words: microbe, parasite or virus in culture. It is filed as cell-based.
The nature of data set [5]: Cytotoxicity in the coronavirus assay, uninfected parallel cultures. It is filed as cell-based. As to conditions: human, read-out: OC43CoV CC50. Here is the method: as §1
For another data set, the system named is Human rhinovirus 1B. In words: Rhinovirus antiviral assay (HRV1B). It is filed as cell-based. As to conditions: Rhinovirus A, 96 h, read-out: HRV 1B EC50, HeLa-OHIO cells, 4 d, CellTiter-Glo.
Data set [6] in a line: Toxicity (CC50) in the HRV1B assay. As to conditions: human.
A short description of the next data set: in vitro. The note with it: human.
The next data set deals with Ebola minigenome. Kind of data set: microbe, parasite or virus in culture. It is filed as cell-based.
Setting [7] is: human respiratory syncytial virus, 168 h, read-out: RSV EC50, HeLa-derived RSV replicon cells, 7 days, luciferase.
[8] abbreviates: Zaire ebolavirus, HEp-2, 48 h, read-out: EBOV EC50, HEp-2 cells, Ebola minigenome, 48 hours.

Like-named read-outs stand apart in the source and are kept apart here.

What is called EC50 is the concentration needed to bring the measured effect to its halfway point. Molecule `CC(C)OC(=O)[C@@H](C)NP(=O)(OC[C@@]1(F)O[C@@](C#N)(c2ccc3c(N)ncnn23)[C@H](O)[C@@H]1O)Oc1ccccc1` (stereo partly drawn) [Compound 5, Isopropyl ((((2S,3S,4R,5R)-5-(4-aminopyrrolo[2,1-f][1,2,4]triazin-7-yl)-5-cyano-2-fluoro-3,4-dihydroxytetrahydrofuran-2-yl)methoxy)(phenoxy)phosphoryl)-D-alaninate] returned a CC50 in data set [1] of more than 100 µM. The CC50 at 7 days in [2] is more than 100 µM. Also, the concentration giving a half-maximal response (EC50) in [3] came out at 25.3 µM; in [4] (Dengue virus, Huh7.5, 144 h), 7.37 µM; with RSV replicon (setting [7]), 2.74 µM. In addition, the CC50 at 5 days in data set [5] was more than 100 µM.
With `CC(C)OC(=O)[C@@H](C)NP(=O)(OC[C@@]1(N=[N+]=[N-])O[C@@](C#N)(c2ccc3c(N)ncnn23)[C@H](O)[C@@H]1O)Oc1ccccc1` (stereo partly drawn) [Compound 11, Isopropyl ((((2R,3S,4R,5R)-5-(4-aminopyrrolo[2,1-f][1,2,4]triazin-7-yl)-2-azido-5-cyano-3,4-dihydroxytetrahydrofuran-2-yl)methoxy)(phenoxy)phosphoryl)-D-alaninate], the EC50 in the data set with Human rhinovirus 1B is more than 100 µM; in data set [3], more than 50 µM; in the data set on RSV replicon (setting [7]) it was 1.3 µM. The molecule further registered a CC50 at 7 days in data set [2] of 13.6 µM. The CC50 at 4 d in [6] came out at 59 µM. Besides, in data set [5], the CC50 at 5 days was more than 50 µM.
Molecule `C[C@H](NP(=O)(OC[C@@]1(F)O[C@@](C#N)(c2ccc3c(N)ncnn23)[C@H](O)[C@@H]1O)Oc1ccccc1)C(=O)OCC(C)(C)C` (stereo partly drawn) [Compound 8, Neopentyl ((((2S,3S,4R,5R)-5-(4-aminopyrrolo[2,1-f][1,2,4]triazin-7-yl)-5-cyano-2-fluoro-3,4-dihydroxytetrahydrofuran-2-yl)methoxy)(phenoxy)phosphoryl)-L-alaninate] came in with a CC50 in “in vitro” of more than 100 µM. This molecule also yielded a CC50 at 4 d in data set [6] of 64 µM. For the same molecule, the EC50 in data set [3] was found to be 0.1 µM; in data set [4] (Dengue virus, Huh7.5, 144 h) it was 0.11 µM; in [4] it was 0.14 µM; with Ebola minigenome (setting [8]) it was 0.5 µM; with Ebola minigenome (read-out: EBOV EC50, HEp-2 cells, Ebola minigenome, 48 hours), 0.8 µM; with RSV replicon (setting [7]) it was 0.03 µM. Moreover, the EC50 in the data set on RSV replicon (read-out: RSV EC50, HeLa-derived RSV replicon cells, 7 days, luciferase) was found to be 0.026 µM. Besides, the CC50 at 5 days in data set [5] is more than 50 µM.
As to `CCCOC(=O)[C@H](C)NP(=O)(N[C@@H](C)C(=O)OCCC)OC[C@@]1(F)O[C@@](C#N)(c2ccc3c(N)ncnn23)[C@H](O)[C@@H]1O` [Compound 10], the EC50 was found to be 3.1 µM in the data set with Human rhinovirus 1B, 2.3 µM in [3] and 0.17 µM with RSV replicon (setting [7]). The molecule further displayed a CC50 at 7 days in data set [2] of more than 100 µM. In [6], this molecule registered a CC50 at 4 d of more than 100 µM. Besides, the CC50 at 5 days in [5] is more than 50 µM.
Consider `CCC(CC)COC(=O)[C@@H](C)NP(=O)(OC[C@@]1(F)O[C@@](C#N)(c2ccc3c(N)ncnn23)[C@H](O)[C@@H]1O)Oc1ccccc1` (stereo partly drawn) [Compound 9, 2-Ethylbutyl ((((2S,3S,4R,5R)-5-(4-aminopyrrolo[2,1-f][1,2,4]triazin-7-yl)-5-cyano-2-fluoro-3,4-dihydroxytetrahydrofuran-2-yl)methoxy)(phenoxy)phosphoryl)-D-alaninate], for which the CC50 in [1] is 12 µM; in the data set “in vitro”, approximately 50 µM. Also, the EC50 with Human rhinovirus 1B turned out to be 0.13 µM; in data set [3] it was 0.025 µM; in [4] (Dengue virus, Huh7.5, 144 h), 0.07 µM; in the data set on Ebola minigenome (setting [8]), 0.25 µM; in the data set with RSV replicon (setting [7]), 0.018 µM. Also, in data set [2], the CC50 at 7 days amounted to 8.1 µM. This molecule also showed a CC50 at 4 d in data set [6] of 33 µM. Moreover, in data set [5], the CC50 at 5 days is 34 µM.

These data come from US11149049B2, “Substituted nucleosides, nucleotides and analogs thereof” (JANSSEN BIOPHARMA, INC., priority 2017, dated 2021).
